Reference: PubChem BioAssay AID1919015 (Molecular Pharmacology Branch, DTP, NCI, 2023)

System: OVCAR-5 complex spheroids with HUVEC/MSC, viability, % test/control
Experiment: Anticancer human tumor OVCAR-5 cell line growth inhibition [AhR];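 note: spheroids exposed to compounds for 7 days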;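 for viability, T/C: 100% = DMSO vehicle control wells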
Details: for IC50: curve of first compound; for viability, T/C: stronger effect = lower value
Excerpt: Multicellular complex tumor spheroid response to aryl hydrocarbon receptor antagonists in combination with a variety of drugs and investigational agents in selected tumor cell lines
The current study was undertaken to assess response to aryl hydrocarbon receptor antagonists in combination with standard-of-care drugs and investigational agents in solid tumor complex spheroid models. Complex spheroids include a stromal component modeled by human endothelial cells (HUVEC) and fibroblasts modeled by human mesenchymal stem cells (MSCs). The concentration ranges selected for each drug and investigational agent were based upon clinically achievable concentrations if the clinical Cmax of the agent was known.
Compounds. The drugs and investigational agents: BAY 2416964 (NSC825713), GNF351 (NSC835774), CH-223191 (NSC835775), CPI-455 (NSC825282), aza-TdCyd (NSC777586), decitabine (NSC127716), belinostat (NSC758774), entinostat (NSC756642), pevonedistat (NSC761192), tazemetostat (NSC777109), talazoparib (NSC765396), olaparib (NSC753686), selinexor (NSC780203), nedisertib (M3814, NSC802822), bortezomib (NSC756655), venetoclax (NSC766270), doxorubicin (NSC123127), elimusertib (BAY189344, NSC800525), ceralasertib (AZD6738, NSC777638), TAK-243 (NSC785004), alisertib (NSC759677), etoposide (NSC141540), topotecan (NSC609699), eribulin (NSC707389), gemcitabine (NSC613327), carboplatin (NSC241240), cisplatin (NSC119875), and SN-38 (NSC673596) were obtained from the National Cancer Institute (NCI) Developmental Therapeutics Program Chemical Repository (32). The FDA-approved anticancer drug set is available from the Developmental Therapeutics Program at https://dtp.cancer.gov/organization/dscb/obtaining/available plates.htm. […] The stock solutions were prepared in dimethyl sulfoxide (DMSO, Sigma-Aldrich, St. Louis, MO, cat. D2650), except for the platinum compounds which were prepared in saline (Quality Biological, Gaithersburg, MD, cat. 114-055-101), at 800-fold the tested concentration and stored at -70 degrees C prior to their use. All drugs and investigational agents were tested over a range starting from a high concentration at or near the clinical Cmax and decreasing in half-log increments. If the clinical Cmax for an agent had not been determined, the highest concentration tested was 10 microM (Table 1).
Cell Culture. All cells were maintained in an incubator at 37 degrees C and 5% CO2 with 95% humidity. The PDC lines were cultured according to standard operating procedures established by the NCI PDMR (https://pdmr.cancer.gov). Briefly, all PDCs were thawed and cultured in Matrigel-coated flasks prepared with a working solution of 1X Ham's F-12 nutrient mix, without supplementation (Invitrogen, Waltham, MA, cat. 11765054), 100 U/mL penicillin-streptomycin (Invitrogen, cat. 15140122), and 2.5% Matrigel (Corning Inc., Corning, NY, cat. 354248) for the first three passages. All PDCs were cultured in complete DMEM/F-12 media containing advanced DMEM/F-12 (Invitrogen, cat. 12634028), 4.9% defined fetal bovine serum, heat inactivated (HyClone Laboratories Inc., Logan, UT, cat. SH30070.03HI), 389 ng/mL hydrocortisone (Sigma-Aldrich, cat. H4001), 9.7 ng/mL human EGF recombinant protein (Invitrogen, cat. PHG0313), 23.4 microg/mL adenine (Sigma-Aldrich, cat. A2786), 97.3 U/mL penicillin-streptomycin (Invitrogen, cat. 15140122), 1.9 mM L-glutamine (Invitrogen, cat. 25030081), and 9.7 microM Y-27632 dihydrochloride (Tocris Bioscience, Bristol, United Kingdom, cat. 1254). The PDCs were cultured in complete DMEM/F12 media without 10 microM Y-27632 dihydrochloride for at least two passages prior to the screen. The established cell lines NCI-H1341 and […] were cultured in DMEM/F-12, HEPES (Invitrogen, cat. 11330032), 5% defined fetal bovine serum (HyClone Laboratories Inc., cat. SH30070.03), ITS premix universal culture supplement [insulin (5 microg/mL), transferrin (5 microg/mL), and selenious acid (5 ng/mL)] […]

[1] = second compound 0.1 µM, first compound 0.0316 µM
[2] = second compound 0.1 µM, first compound 0.1 µM
[3] = second compound 0.316 µM, first compound 0.0316 µM
[4] = second compound 0.316 µM, first compound 0.1 µM
[5] = second compound 1 µM, first compound 0.0316 µM
[6] = second compound 1 µM, first compound 0.1 µM
[7] = second compound 3.16 µM, first compound 0.0316 µM
[8] = second compound 3.16 µM, first compound 0.1 µM
[9] = second compound 10 µM, first compound 0.0316 µM
[10] = second compound 10 µM, first compound 0.1 µM

CC[C@@]1(O)C(=O)OCc2c1cc1n(c2=O)Cc2cc3c(CN(C)C)c(O)ccc3nc2-1 + CC(CO)NC(=O)c1cc(-c2ccc(Cl)cc2)nn(-c2cnn(C)c2)c1=O
IC50 (second compound 0.1 µM): > 0.1 µM | IC50 (second compound 0.316 µM): > 0.1 µM | IC50 (second compound 1 µM): > 0.1 µM | IC50 (second compound 3.16 µM): > 0.1 µM | IC50 (second compound 10 µM): > 0.1 µM | viability, T/C (second compound 0.1 µM, first compound 0.000316 µM): 112% | viability, T/C (second compound 0.1 µM, first compound 0.001 µM): 105% | viability, T/C (second compound 0.1 µM, first compound 0.00316 µM): 105% | viability, T/C (second compound 0.1 µM, first compound 0.01 µM): 94.9% | viability, T/C [1]: 61.9% | viability, T/C [2]: 50.9% | viability, T/C (second compound 0.316 µM, first compound 0.000316 µM): 111% | viability, T/C (second compound 0.316 µM, first compound 0.001 µM): 110% | viability, T/C (second compound 0.316 µM, first compound 0.00316 µM): 106% | viability, T/C (second compound 0.316 µM, first compound 0.01 µM): 99.5% | viability, T/C [3]: 59% | viability, T/C [4]: 54.2% | viability, T/C (second compound 1 µM, first compound 0.000316 µM): 119% | viability, T/C (second compound 1 µM, first compound 0.001 µM): 119% | viability, T/C (second compound 1 µM, first compound 0.00316 µM): 112% | viability, T/C (second compound 1 µM, first compound 0.01 µM): 107% | viability, T/C [5]: 59% | viability, T/C [6]: 56.4% | viability, T/C (second compound 3.16 µM, first compound 0.000316 µM): 100% | viability, T/C (second compound 3.16 µM, first compound 0.001 µM): 102% | viability, T/C (second compound 3.16 µM, first compound 0.00316 µM): 105% | viability, T/C (second compound 3.16 µM, first compound 0.01 µM): 93.9% | viability, T/C [7]: 52.9% | viability, T/C [8]: 55.4% | viability, T/C (second compound 10 µM, first compound 0.000316 µM): 99.9% | viability, T/C (second compound 10 µM, first compound 0.001 µM): 103% | viability, T/C (second compound 10 µM, first compound 0.00316 µM): 100% | viability, T/C (second compound 10 µM, first compound 0.01 µM): 87.4% | viability, T/C [9]: 54.9% | viability, T/C [10]: 62.8%

CCc1c2c(nc3ccc(O)cc13)-c1cc3c(c(=O)n1C2)COC(=O)[C@]3(O)CC + CC(CO)NC(=O)c1cc(-c2ccc(Cl)cc2)nn(-c2cnn(C)c2)c1=O
IC50 (second compound 0.1 µM): 0.00663 µM | IC50 (second compound 0.316 µM): 0.00574 µM | IC50 (second compound 1 µM): 0.00731 µM | IC50 (second compound 3.16 µM): 0.00558 µM | IC50 (second compound 10 µM): 0.0106 µM | viability, T/C (second compound 0.1 µM, first compound 0.000949 µM): 77.5% | viability, T/C (second compound 0.1 µM, first compound 0.003 µM): 55.8% | viability, T/C (second compound 0.1 µM, first compound 0.00949 µM): 42.6% | viability, T/C (second compound 0.1 µM, first compound 0.03 µM): 37.8% | viability, T/C (second compound 0.1 µM, first compound 0.0949 µM): 17.8% | viability, T/C (second compound 0.1 µM, first compound 0.3 µM): 6.98% | viability, T/C (second compound 0.316 µM, first compound 0.000949 µM): 76% | viability, T/C (second compound 0.316 µM, first compound 0.003 µM): 54% | viability, T/C (second compound 0.316 µM, first compound 0.00949 µM): 43.9% | viability, T/C (second compound 0.316 µM, first compound 0.03 µM): 32.8% | viability, T/C (second compound 0.316 µM, first compound 0.0949 µM): 18.7% | viability, T/C (second compound 0.316 µM, first compound 0.3 µM): 6.72% | viability, T/C (second compound 1 µM, first compound 0.000949 µM): 70.5% | viability, T/C (second compound 1 µM, first compound 0.003 µM): 54.6% | viability, T/C (second compound 1 µM, first compound 0.00949 µM): 49.7% | viability, T/C (second compound 1 µM, first compound 0.03 µM): 35.9% | viability, T/C (second compound 1 µM, first compound 0.0949 µM): 15.5% | viability, T/C (second compound 1 µM, first compound 0.3 µM): 7.35% | viability, T/C (second compound 3.16 µM, first compound 0.000949 µM): 56.8% | viability, T/C (second compound 3.16 µM, first compound 0.003 µM): 47.6% | viability, T/C (second compound 3.16 µM, first compound 0.00949 µM): 48.5% | viability, T/C (second compound 3.16 µM, first compound 0.03 µM): 35.5% | viability, T/C (second compound 3.16 µM, first compound 0.0949 µM): 14.7% | viability, T/C (second compound 3.16 µM, first compound 0.3 µM): 6.85% | viability, T/C (second compound 10 µM, first compound 0.000949 µM): 51.7% | viability, T/C (second compound 10 µM, first compound 0.003 µM): 51.4% | viability, T/C (second compound 10 µM, first compound 0.00949 µM): 57.5% | viability, T/C (second compound 10 µM, first compound 0.03 µM): 34.5% | viability, T/C (second compound 10 µM, first compound 0.0949 µM): 17.7% | viability, T/C (second compound 10 µM, first compound 0.3 µM): 7.22%

Nc1ccn(C2OC(CO)C(O)C2(F)F)c(=O)n1 (stereo not given) + CC(CO)NC(=O)c1cc(-c2ccc(Cl)cc2)nn(-c2cnn(C)c2)c1=O
IC50 (second compound 0.1 µM): < 0.0316 µM | IC50 (second compound 0.316 µM): < 0.0316 µM | IC50 (second compound 1 µM): < 0.0316 µM | IC50 (second compound 3.16 µM): < 0.0316 µM | IC50 (second compound 10 µM): < 0.0316 µM | viability, T/C [1]: 34.6% | viability, T/C [2]: 32.1% | viability, T/C (second compound 0.1 µM, first compound 0.316 µM): 28.1% | viability, T/C (second compound 0.1 µM, first compound 1 µM): 29.9% | viability, T/C (second compound 0.1 µM, first compound 3.16 µM): 30.9% | viability, T/C (second compound 0.1 µM, first compound 10 µM): 29.4% | viability, T/C [3]: 32.9% | viability, T/C [4]: 29.8% | viability, T/C (second compound 0.316 µM, first compound 0.316 µM): 28.9% | viability, T/C (second compound 0.316 µM, first compound 1 µM): 28.5% | viability, T/C (second compound 0.316 µM, first compound 3.16 µM): 31.5% | viability, T/C (second compound 0.316 µM, first compound 10 µM): 30.2% | viability, T/C [5]: 36.1% | viability, T/C [6]: 32.4% | viability, T/C (second compound 1 µM, first compound 0.316 µM): 29.6% | viability, T/C (second compound 1 µM, first compound 1 µM): 30.4% | viability, T/C (second compound 1 µM, first compound 3.16 µM): 31.3% | viability, T/C (second compound 1 µM, first compound 10 µM): 30.1% | viability, T/C [7]: 37% | viability, T/C [8]: 32.3% | viability, T/C (second compound 3.16 µM, first compound 0.316 µM): 29.6% | viability, T/C (second compound 3.16 µM, first compound 1 µM): 28.9% | viability, T/C (second compound 3.16 µM, first compound 3.16 µM): 28.7% | viability, T/C (second compound 3.16 µM, first compound 10 µM): 29.6% | viability, T/C [9]: 39.6% | viability, T/C [10]: 33.9% | viability, T/C (second compound 10 µM, first compound 0.316 µM): 30.9% | viability, T/C (second compound 10 µM, first compound 1 µM): 31.2% | viability, T/C (second compound 10 µM, first compound 3.16 µM): 32.8% | viability, T/C (second compound 10 µM, first compound 10 µM): 33.8%
